tested on: IL-1b; assay: Human Monocyte IL-1b Assay; type: cell-based; conditions: Homo sapiens, Monocyte, fresh human whole blood; compound 0.5 h, 100 ng/mL LPS 3.5 h at 37° C., 5 mM ATP 45 min; IL-1b in supernatant by ELISA
Description: Example 46: Human Monocyte IL-1b Assay
Serially diluted testing compounds were incubated with […] of fresh human whole blood for 0.5 hours. Cells were primed with 100 ng/mL lipopolysaccharide (LPS) for 3.5 hours at 37° C. followed by stimulation with 5 mM ATP for an additional 45 minutes. The concentration of IL-1b concentration in the supernatant was determined with commercially available ELISA kits. Negative controls are wells without stimulation, while positive controls are wells with stimulation but only DMSO without compounds added. After background subtraction, compound treatment wells were then normalized to the positive controls for IC50 calculations.

IC50	SMILES
< 500 nM	CC(c1nnc(-c2ccc(C(F)(F)F)cc2O)c2ccccc12)C1CCCNC1 (stereo not drawn) [Compound 22, 2-(4-(1-(piperidin-3-yl)ethyl)phthalazin-1-yl)-5-(trifluoromethyl)phenol]
3000 to 10000 nM	CN1CCC(=O)C(C(O)c2ccc(-c3ccc(C(F)(F)F)cc3O)nn2)C1 (stereo not drawn) [Compound 23, 3-(hydroxy(6-(2-hydroxy-4-(trifluoromethyl)phenyl)pyridazin-3-yl)methyl)-1-methylpiperidin-4-one]
< 500 nM	COc1cc(C(F)(F)F)ccc1-c1nnc([C@H](O)[C@@H]2CCCN(C)C2)cc1C [Compound 24, (R)-(6-(2-methoxy-4-(trifluoromethyl)phenyl)-5-methylpyridazin-3-yl)((R)-1-methylpiperidin-3-yl)methanol]
< 500 nM	Cc1cc([C@H](O)[C@@H]2CCCN(C3CC3)C2)nnc1-c1ccc(C(F)(F)F)cc1O [Compound 25, 2-(6-((R)-((R)-1-cyclopropylpiperidin-3-yl)(hydroxy)methyl)-4-methylpyridazin-3-yl)-5-(trifluoromethyl)phenol]
< 500 nM	Cc1cc(C(O)[C@@H]2CCN(C)C2)nnc1-c1ccc(C(F)(F)F)cc1O (stereo partly drawn) [Compound 26, 2-(6-(hydroxy((R)-1-methylpyrrolidin-3-yl)methyl)-4-methylpyridazin-3-yl)-5-(trifluoromethyl)phenol]
500 to 3000 nM	Cc1cc([C@H](O)[C@]2(C)CCCN(C)C2)nnc1-c1ccc(C(F)(F)F)cc1O [Compound 27A, 2-(6-((R)-((R)-1,3-dimethylpiperidin-3-yl)(hydroxy)methyl)-4-methylpyridazin-3-yl)-5-(trifluoromethyl)phenol]
3000 to 10000 nM	Cc1cc([C@@H](O)[C@]2(C)CCCN(C)C2)nnc1-c1ccc(C(F)(F)F)cc1O [Compound 27B, 2-(6-((S)-((R)-1,3-dimethylpiperidin-3-yl)(hydroxy)methyl)-4-methylpyridazin-3-yl)-5-(trifluoromethyl)phenol]
3000 to 10000 nM	COc1cc(C(F)(F)F)ccc1-c1nnc(C(O)C2CN(C)C2)cc1C (stereo not drawn) [Compound 30, (6-(2-methoxy-4-(trifluoromethyl)phenyl)-5-methylpyridazin-3-yl)(1-methylazetidin-3-yl)methanol]
< 500 nM	Cc1cc(C(O)C2CN(C)C2)nnc1-c1ccc(C(F)(F)F)cc1O (stereo not drawn) [Compound 31, 2-(6-(hydroxy(1-methylazetidin-3-yl)methyl)-4-methylpyridazin-3-yl)-5-(trifluoromethyl)phenol]
500 to 3000 nM	Cc1cc(C(O)C2CCC3CCCN3C2)nnc1-c1ccc(C(F)(F)F)cc1O (stereo not drawn) [Compound 38, 2-(6-(hydroxy(octahydroindolizin-6-yl)methyl)-4-methylpyridazin-3-yl)-5-(trifluoromethyl)phenol]
< 500 nM	Cc1cc(C(O)C2CCCCN2C)nnc1-c1ccc(C(F)(F)F)cc1O (stereo not drawn) [Compound 39, 2-(6-(hydroxy(1-methylpiperidin-2-yl)methyl)-4-methylpyridazin-3-yl)-5-(trifluoromethyl)phenol]
< 500 nM	Cc1cc([C@H](O)[C@@H]2CCCNC2)nnc1-c1ccc(C(F)(F)F)cc1O [Compound 40, 2-(6-((R)-hydroxy((R)-piperidin-3-yl)methyl)-4-methylpyridazin-3-yl)-5-(trifluoromethyl)phenol]
< 500 nM	Cc1cc([C@H](O)[C@@H]2CCCN(C(C)C)C2)nnc1-c1ccc(C(F)(F)F)cc1O [Compound 41, 2-(6-((R)-hydroxy((R)-1-isopropylpiperidin-3-yl)methyl)-4-methylpyridazin-3-yl)-5-(trifluoromethyl)phenol]
< 500 nM	Cc1cc(C(O)[C@@H]2CCCN(C)C2)nnc1-c1cc(F)c(C(F)(F)F)cc1O (stereo partly drawn) [Compound 42, 4-fluoro-2-(6-(hydroxy((R)-1-methylpiperidin-3-yl)methyl)-4-methylpyridazin-3-yl)-5-(trifluoromethyl)phenol]
< 500 nM	CCN1CCC[C@@H]([C@@H](O)c2cc(C)c(-c3ccc(C(F)(F)F)cc3O)nn2)C1 [Compound 45, 2-(6-((R)-((R)-1-ethylpiperidin-3-yl)(hydroxy)methyl)-4-methylpyridazin-3-yl)-5-(trifluoromethyl)phenol]

SMILES	IC50
Cc1cc([C@H](O)C2CN3CCC2CC3)nnc1-c1ccc(C(F)(F)F)cc1O (stereo partly drawn) [Compound 28A, 2-(6-((1R)-hydroxy(quinuclidin-3-yl)methyl)-4-methylpyridazin-3-yl)-5-(trifluoromethyl)phenol]	< 500 nM
Cc1cc([C@@H](O)C2CN3CCC2CC3)nnc1-c1ccc(C(F)(F)F)cc1O (stereo partly drawn) [Compound 28B, 2-(6-((1S)-hydroxy(quinuclidin-3-yl)methyl)-4-methylpyridazin-3-yl)-5-(trifluoromethyl)phenol]	500 to 3000 nM
Cc1cc(C(O)C2CCC3CCC2N3C)nnc1-c1ccc(C(F)(F)F)cc1O (stereo not drawn) [Compound 34, 2-(6-(hydroxy(8-methyl-8-azabicyclo[3.2.1]octan-2-yl)methyl)-4-methylpyridazin-3-yl)-5-(trifluoromethyl)phenol]	< 500 nM
Cc1cc(C(O)C23CC(CN(C)C2)C3)nnc1-c1ccc(C(F)(F)F)cc1O (stereo not drawn) [Compound 35, 2-(6-(hydroxy(3-methyl-3-azabicyclo[3.1.1]heptan-1-yl)methyl)-4-methylpyridazin-3-yl)-5-(trifluoromethyl)phenol]	500 to 3000 nM

same assay, conditions: Monocyte; fresh human whole blood; compound 0.5 h, 100 ng/mL LPS 3.5 h at 37° C., 5 mM ATP 45 min; IL-1b in supernatant by ELISA

SMILES	IC50
Cc1cc(C(O)C23CCCN(CC2)C3)nnc1-c1ccc(C(F)(F)F)cc1O (stereo not drawn) [Compound 29, 2-(6-((1-azabicyclo[3.2.1]octan-5-yl)(hydroxy)methyl)-4-methylpyridazin-3-yl)-5-(trifluoromethyl)phenol]	500 to 3000 nM
Cc1cc(C(O)C2CCCCN(C)C2)nnc1-c1ccc(C(F)(F)F)cc1O (stereo not drawn) [Compound 32, 2-(6-(hydroxy(1-methylazepan-3-yl)methyl)-4-methylpyridazin-3-yl)-5-(trifluoromethyl)phenol]	< 500 nM
Cc1cc(C(O)C23CCC(CC2)N(C)C3)nnc1-c1ccc(C(F)(F)F)cc1O (stereo not drawn) [Compound 33, 2-(6-(hydroxy(2-methyl-2-azabicyclo[2.2.2]octan-4-yl)methyl)-4-methylpyridazin-3-yl)-5-(trifluoromethyl)phenol]	500 to 3000 nM
Cc1cc(C(O)C2CC3CC2N(C)C3)nnc1-c1ccc(C(F)(F)F)cc1O (stereo not drawn) [Compound 36, 2-(6-(hydroxy(2-methyl-2-azabicyclo[2.2.1]heptan-6-yl)methyl)-4-methylpyridazin-3-yl)-5-(trifluoromethyl)phenol]	< 500 nM
Cc1cc([C@H](O)[C@@H]2CC[C@H]3CCC(=O)N3C2)nnc1-c1ccc(C(F)(F)F)cc1O [Compound 37, (6R,8aS)-6-((R)-hydroxy(6-(2-hydroxy-4-(trifluoromethyl)phenyl)-5-methylpyridazin-3-yl)methyl)hexahydroindolizin-3(2H)-one]	500 to 3000 nM
